Experimental data reported in US7423060B2, “Thiophene hydroxamic acid derivatives and their use as HDAC inhibitors” (Hoffman-La Roche Inc., priority 2004, dated 2008).

System: HT-29 cells
Assay: MTT assay on HT-29 human colon carcinoma cell line
Type: cell-based
Conditions: MTT assay after 5 days, compounds 30 μM to 1.5 nM, read-out: IC90 HT29
Protocol: To show the activity of the compounds according to this invention, their effects on a human colon carcinoma cell line was evaluated using a standard MTT-assay. MTT (3-(4,5-dimethylthiazol-2-yl)-2,5-diphenyl tetrazolium bromide) is widely used for the quantitative determination of cytotoxic effects or in vitro chemosensitivity of tumor cells. The assay is based on the cleavage of the yellow tetrazolium salt (MTT) to purple formazan crystals by metabolic active cells. For details, see Rubinstein, L. V., et al., J. Natl. Cancer Inst. 82 (1990) 1113-1118.
We proceeded as follows: HT-29 cells (human colon carcinoma cell line, ATCC-No. HTB-38) were cultivated in RPMI 1640 medium with GlutaMAX™ I (Invitrogen, Cat-No. 61870-010), 2.5% fetal calf serum (FCS, Sigma Cat-No. F4135 (FBS)), 2 mM glutamine, 100 units/ml penicillin, 100 μg/ml streptomycin (=Pen/Strep from Invitrogen Cat. No. 15140). For the assay the cells were seeded in 384 well plates, 900 cells per well, in the same medium. At the next day, the compounds (dissolved 10 mM in DMSO) were added in various concentrations ranging from 30 μM to 1.5 nM. After 5 days, the MTT assay was done mainly according to the instructions of the manufacturer (Cell proliferation kit I, MTT, from Roche Molecular Biochemicals). […] After careful mixing, the plates were measured in Victor 2 (scanning multiweil spectrophotometer, Wallac) at 550 nm. […]

IC90: 690 nM
Structure (SMILES): CC(NC(=O)c1ccc(C(=O)NO)s1)c1ccc(OCc2ccc(OC(F)(F)F)cc2)cc1 (stereo not shown) [Example 1-1, Thiophene-2,5-dicarboxylic acid 2-hydroxyamide 5-({1-[4-(4-trifluoromethoxy-benzyloxy)-phenyl]-ethyl}-amide)]
